Data published in patent publication US4684664A, “Derivatives of β-(4-isocyano-1,2,3,4-diepoxycyclopentyl) acrylic acid” (Kureha Kagaku Kogyo Kabushiki Kaisha, priority 1984, dated 1987).
Values after ≈ are worked out from the molar mass of the structure shown.

What was measured:
Format in all cases: cell-based
Proteus vulgaris OX-19 = experiment: Antibacterial activity, agar-dilution MIC, organism No. 20; conditions: Proteus vulgaris, OX19; Organism No. 20, bouillon-agar; read-out: Minimum Inhibitory Concentration
How it was run: (§1)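 Agar dilution, bouillon-agar plates; MIC reported in μg/ml of medium.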

[1] = test system: Staphylococcus aureus MS 353; experiment: Antibacterial activity, agar-dilution MIC, organism No. 3; conditions: Staphylococcus aureus, MS353; Organism No. 3, bouillon-agar; read-out: Minimum Inhibitory Concentration
How it was run: as §1

[2] = test system: Staphylococcus aureus Terajima; experiment: Antibacterial activity, agar-dilution MIC, organism No. 2; conditions: Staphylococcus aureus; Organism No. 2, bouillon-agar; read-out: Minimum Inhibitory Concentration
How it was run: as §1

[3] = test system: Staphylococcus aureus FDA 209PJc-1; experiment: Antibacterial activity, agar-dilution MIC, organism No. 1; conditions: Staphylococcus aureus, FDA209PJC1; Organism No. 1, bouillon-agar; read-out: Minimum Inhibitory Concentration
How it was run: as §1

[4] = test system: Pseudomonas aeruginosa NCTC 10490; experiment: Antibacterial activity, agar-dilution MIC, organism No. 16; conditions: Pseudomonas aeruginosa, NCTC10490; Organism No. 16, bouillon-agar; read-out: Minimum Inhibitory Concentration
How it was run: as §1

[5] = test system: Streptococcus pyogenes IFO 3340; experiment: Antibacterial activity, agar-dilution MIC, organism No. 26; conditions: Streptococcus pyogenes, IFO3340; Organism No. 26, bouillon-agar; read-out: Minimum Inhibitory Concentration
How it was run: as §1

[6] = test system: Salmonella typhimurium IID 971; experiment: Antibacterial activity, agar-dilution MIC, organism No. 8; conditions: Salmonella enterica; Organism No. 8, bouillon-agar; read-out: Minimum Inhibitory Concentration
How it was run: as §1

[7] = test system: Enterobacter aerogenes ATCC 13048; experiment: Antibacterial activity, agar-dilution MIC, organism No. 23; conditions: Klebsiella aerogenes, ATCC13048; Organism No. 23, bouillon-agar; read-out: Minimum Inhibitory Concentration
How it was run: as §1

[8] = test system: Salmonella paratyphi-A 1015; experiment: Antibacterial activity, agar-dilution MIC, organism No. 10; conditions: Salmonella enterica, PARATYPHI, read-out: Minimum Inhibitory Concentration
How it was run: as §1

Enterobacter cloacae 963 = experiment: Antibacterial activity, agar-dilution MIC, organism No. 24; conditions: Enterobacter cloacae, 963; Organism No. 24, bouillon-agar; read-out: Minimum Inhibitory Concentration
How it was run: as §1

[9] = test system: Candida albicans IAM 4905; experiment: Antifungal activity, agar-dilution MIC, organism No. 29; conditions: Candida albicans, IAM4905; Organism No. 29, bouillon-agar; read-out: Minimum Inhibitory Concentration
How it was run: as §1

[10] = test system: Proteus mirabilis IFO 3849; experiment: Antibacterial activity, agar-dilution MIC, organism No. 19; conditions: Proteus mirabilis, IFO3849; Organism No. 19, bouillon-agar; read-out: Minimum Inhibitory Concentration
How it was run: as §1

[11] = test system: Aspergillus niger IFO 6342; experiment: Antifungal activity, agar-dilution MIC, organism No. 30; conditions: Aspergillus niger, IFO6342; Organism No. 30, bouillon-agar; read-out: Minimum Inhibitory Concentration
How it was run: as §1

[12] = test system: Salmonella shottmuelleri 8006; experiment: Antibacterial activity, agar-dilution MIC, organism No. 11; conditions: Salmonella, 8006; Organism No. 11, bouillon-agar; read-out: Minimum Inhibitory Concentration
How it was run: as §1

Salmonella typhi 901 = experiment: Antibacterial activity, agar-dilution MIC, organism No. 9; conditions: Salmonella enterica, TYPHI, read-out: Minimum Inhibitory Concentration
How it was run: as §1

[13] = test system: Escherichia coli NIHJ-JC-2; experiment: Antibacterial activity, agar-dilution MIC, organism No. 5; conditions: Escherichia coli, NIHJJC2; Organism No. 5, bouillon-agar; read-out: Minimum Inhibitory Concentration
How it was run: as §1

[14] = test system: Micrococcus luteus ATCC 9341; experiment: Antibacterial activity, agar-dilution MIC, organism No. 25; conditions: Micrococcus luteus, ATCC9341; Organism No. 25, bouillon-agar; read-out: Minimum Inhibitory Concentration
How it was run: as §1

[15] = test system: Proteus morganii IFO 3848; experiment: Antibacterial activity, agar-dilution MIC, organism No. 18; conditions: Morganella morganii, IFO3848; Organism No. 18, bouillon-agar; read-out: Minimum Inhibitory Concentration
How it was run: as §1

[16] = test system: Pseudomonas aeruginosa PAO 1; experiment: Antibacterial activity, agar-dilution MIC, organism No. 17; conditions: Pseudomonas aeruginosa, PAO1; Organism No. 17, bouillon-agar; read-out: Minimum Inhibitory Concentration
How it was run: as §1

[17] = test system: Salmonella enteritidis G 14; experiment: Antibacterial activity, agar-dilution MIC, organism No. 12; conditions: Salmonella enterica, ENTERITIDIS; Organism No. 12, bouillon-agar; read-out: Minimum Inhibitory Concentration
How it was run: as §1

[18] = test system: Bacillus subtilis ATCC 6633; experiment: Antibacterial activity, agar-dilution MIC, organism No. 14; conditions: Bacillus subtilis, ATCC6633; Organism No. 14, bouillon-agar; read-out: Minimum Inhibitory Concentration
How it was run: as §1

[19] = test system: Streptococcus faecium IFO 3826; experiment: Antibacterial activity, agar-dilution MIC, organism No. 27; conditions: Enterococcus faecium, IFO3826; Organism No. 27, bouillon-agar; read-out: Minimum Inhibitory Concentration
How it was run: as §1

[20] = test system: Klebsiella pneumoniae PCI-602; experiment: Antibacterial activity, agar-dilution MIC, organism No. 7; conditions: Klebsiella pneumoniae, PCI602; Organism No. 7, bouillon-agar; read-out: Minimum Inhibitory Concentration
How it was run: as §1

[21] = test system: Proteus rettgeri IFO 3850; experiment: Antibacterial activity, agar-dilution MIC, organism No. 22; conditions: Providencia rettgeri, IFO3850; Organism No. 22, bouillon-agar; read-out: Minimum Inhibitory Concentration
How it was run: as §1

[22] = test system: Mycoplasma pneumoniae IID817; experiment: Antimycoplasmal activity, MIC by phenol red colour change, organism No. 28; conditions: Mycoplasma, IID817; Organism No. 28, PPLO broth + 1% glucose, 37° C.; read-out: Minimum Inhibitory Concentration (MIC)
Method: Mycoplasma pneumoniae IID817 was used as the test microorganism in a culture medium prepared by adding 1% of glucose to "PPLO broth (manufactured by Difco Co.) liquid culture medium" at 37° C. with phenol red as an indicator, thereby culturing the test microorganism.

Proteus vulgaris HX-19 = experiment: Antibacterial activity, agar-dilution MIC, organism No. 21; conditions: Proteus vulgaris, HX19; Organism No. 21, bouillon-agar; read-out: Minimum Inhibitory Concentration
How it was run: as §1

[23] = test system: Streptococcus pyogenes Cook; experiment: Antibacterial activity, agar-dilution MIC, organism No. 4; conditions: Streptococcus pyogenes; Organism No. 4, bouillon-agar; read-out: Minimum Inhibitory Concentration
How it was run: as §1

[24] = test system: Serratia marcescens IAM 1184; experiment: Antibacterial activity, agar-dilution MIC, organism No. 13; conditions: Serratia marcescens, IAM1184; Organism No. 13, bouillon-agar; read-out: Minimum Inhibitory Concentration
How it was run: as §1

[25] = test system: Escherichia coli K12 C600 IAM 1264; experiment: Antibacterial activity, agar-dilution MIC, organism No. 6; conditions: Escherichia coli, IAM1264; Organism No. 6, bouillon-agar; read-out: Minimum Inhibitory Concentration
How it was run: as §1

[26] = test system: Pseudomonas aeruginosa IFO 3445; experiment: Antibacterial activity, agar-dilution MIC, organism No. 15; conditions: Pseudomonas aeruginosa, IFO3445; Organism No. 15, bouillon-agar; read-out: Minimum Inhibitory Concentration
How it was run: as §1

SMILES | MIC (Proteus vulgaris OX-19) | MIC [1] | MIC [2] | MIC [3] | MIC [4] | MIC [5] | MIC [6] | MIC [7] | MIC [8] | MIC (Enterobacter cloacae 963) | MIC [9] | MIC [10] | MIC [11] | MIC [12] | MIC (Salmonella typhi 901) | MIC [13] | MIC [14] | MIC [15] | MIC [16] | MIC [17] | other results
[C-]#[N+]C12CC3(/C=C/C(=O)Nc4ccc(I)cc4)OC3C1O2 (stereo not drawn) [compound 45] | 0.78 µg/mL (≈ 1.98 µM) | 12.5 µg/mL (≈ 31.7 µM) | > 200 µg/mL | 12.5 µg/mL (≈ 31.7 µM) | > 200 µg/mL | > 200 µg/mL | > 200 µg/mL | > 200 µg/mL | > 200 µg/mL | > 200 µg/mL | 3.13 µg/mL (≈ 7.94 µM) | > 200 µg/mL | 3.13 µg/mL (≈ 7.94 µM) | 50 µg/mL (≈ 127 µM) | > 200 µg/mL | > 200 µg/mL | < 0.05 µg/mL | 100 µg/mL (≈ 254 µM) | > 200 µg/mL | > 200 µg/mL | MIC [18]: > 200 µg/mL; MIC [19]: > 200 µg/mL; MIC [20]: 6.25 µg/mL (≈ 15.9 µM); MIC [21]: > 200 µg/mL; MIC [22]: < 0.2 µg/mL; MIC (Proteus vulgaris HX-19): 0.78 µg/mL (≈ 1.98 µM); MIC [23]: > 200 µg/mL; MIC [24]: > 200 µg/mL; MIC [25]: > 200 µg/mL; MIC [26]: > 200 µg/mL
[C-]#[N+]C12CC3(/C=C/C(=O)Nc4cccc(C(F)(F)F)c4)OC3C1O2 (stereo not drawn) [compound 47] | < 0.05 µg/mL | < 0.05 µg/mL | 0.2 µg/mL (≈ 0.595 µM) | < 0.05 µg/mL | > 200 µg/mL | 0.39 µg/mL (≈ 1.16 µM) | 3.13 µg/mL (≈ 9.31 µM) | > 200 µg/mL | 3.13 µg/mL (≈ 9.31 µM) | > 200 µg/mL | 1.56 µg/mL (≈ 4.64 µM) | > 200 µg/mL | 3.13 µg/mL (≈ 9.31 µM) | 0.1 µg/mL (≈ 0.297 µM) | 3.13 µg/mL (≈ 9.31 µM) | 200 µg/mL (≈ 595 µM) | 0.78 µg/mL (≈ 2.32 µM) | < 0.05 µg/mL | > 200 µg/mL | 3.13 µg/mL (≈ 9.31 µM) | MIC [18]: 0.78 µg/mL (≈ 2.32 µM); MIC [19]: 3.13 µg/mL (≈ 9.31 µM); MIC [20]: < 0.05 µg/mL; MIC [21]: 50 µg/mL (≈ 149 µM); MIC [22]: < 0.2 µg/mL; MIC (Proteus vulgaris HX-19): < 0.05 µg/mL; MIC [23]: 200 µg/mL (≈ 595 µM); MIC [24]: 25 µg/mL (≈ 74.3 µM); MIC [25]: 200 µg/mL (≈ 595 µM); MIC [26]: > 200 µg/mL
